In PubChem BioAssay AID1845207 (Molecular Pharmacology Branch, DTP, NCI, 2023):

Tested on: NCI-H1876 tumor spheroid viability
Experiment: Anticancer human tumor NCI-H1876 cell line growth inhibition;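 further: spheroids exposed to compounds for seven days before the viability read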;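 on viability, T/C: percent of DMSO vehicle control viability so 100% = vehicle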
Conditions: spheroids with HUVEC and MSC; for IC50: curve of first compound; for viability, T/C: stronger effect = lower value
How it was run: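 Complex tumor spheroids combined malignant cells with endothelial cells and mesenchymal stem cells. DNA-damaging drugs and DNA repair inhibitors were tested alone and in combination, at half-log dilutions down from clinical Cmax (top 10 microM if Cmax unknown), 0.25% DMSO final.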

[1] = second compound 30 pM, first compound 0.0316 µM
[2] = second compound 30 pM, first compound 0.1 µM
[3] = second compound 30 pM, first compound 0.316 µM
[4] = second compound 30 pM, first compound 1 µM
[5] = second compound 30 pM, first compound 3.16 µM
[6] = second compound 30 pM, first compound 10 µM
[7] = second compound 94.9 pM, first compound 0.0316 µM
[8] = second compound 94.9 pM, first compound 0.1 µM
[9] = second compound 94.9 pM, first compound 0.316 µM
[10] = second compound 94.9 pM, first compound 1 µM
[11] = second compound 94.9 pM, first compound 3.16 µM
[12] = second compound 94.9 pM, first compound 10 µM
[13] = second compound 0.0003 µM, first compound 0.0316 µM
[14] = second compound 0.0003 µM, first compound 0.1 µM
[15] = second compound 0.0003 µM, first compound 0.316 µM
[16] = second compound 0.0003 µM, first compound 1 µM
[17] = second compound 0.0003 µM, first compound 3.16 µM
[18] = second compound 0.0003 µM, first compound 10 µM
[19] = second compound 0.000949 µM, first compound 0.0316 µM
[20] = second compound 0.000949 µM, first compound 0.1 µM
[21] = second compound 0.000949 µM, first compound 0.316 µM
[22] = second compound 0.000949 µM, first compound 1 µM
[23] = second compound 0.000949 µM, first compound 3.16 µM
[24] = second compound 0.000949 µM, first compound 10 µM
[25] = second compound 0.003 µM, first compound 0.0316 µM
[26] = second compound 0.003 µM, first compound 0.1 µM
[27] = second compound 0.003 µM, first compound 0.316 µM
[28] = second compound 0.003 µM, first compound 1 µM
[29] = second compound 0.003 µM, first compound 3.16 µM
[30] = second compound 0.003 µM, first compound 10 µM

COc1cc(C)[nH]c(=O)c1CN1CCc2c(Cl)cc(C(OC)C3COC3)c(Cl)c2C1=O (stereo not given) + COc1cc2c(cc1O)CCNC21CSC2c3c(OC(C)=O)c(C)c4c(c3C(COC1=O)N1C(O)C3Cc5cc(C)c(OC)c(O)c5C(C21)N3C)OCO4
IC50 (second compound 30 pM): > 10000 nM
IC50 (second compound 94.9 pM): > 10000 nM
IC50 (second compound 0.0003 µM): < 31.6 nM
IC50 (second compound 0.000949 µM): < 31.6 nM
IC50 (second compound 0.003 µM): < 31.6 nM
viability, T/C [1]: 99.7%
viability, T/C [2]: 104%
viability, T/C [3]: 96.9%
viability, T/C [4]: 97.6%
viability, T/C [5]: 94.5%
viability, T/C [6]: 90.5%
viability, T/C [7]: 91.6%
viability, T/C [8]: 89.6%
viability, T/C [9]: 89.5%
viability, T/C [10]: 86.9%
viability, T/C [11]: 81.9%
viability, T/C [12]: 76.7%
viability, T/C [13]: 22%
viability, T/C [14]: 21.2%
viability, T/C [15]: 23.9%
viability, T/C [16]: 20.5%
viability, T/C [17]: 19.1%
viability, T/C [18]: 14%
viability, T/C [19]: 2.52%
viability, T/C [20]: 2.44%
viability, T/C [21]: 2.38%
viability, T/C [22]: 2.44%
viability, T/C [23]: 2.06%
viability, T/C [24]: 2.03%
viability, T/C [25]: 0.75%
viability, T/C [26]: 0.84%
viability, T/C [27]: 0.98%
viability, T/C [28]: 0.57%
viability, T/C [29]: 0.7%
viability, T/C [30]: 0.93%

O=C(c1cc(Cc2n[nH]c(=O)c3ccccc23)ccc1F)N1CCN(C(=O)C2CC2)CC1 + CC[C@@]1(O)C(=O)OCc2c1cc1n(c2=O)Cc2cc3c(CN(C)C)c(O)ccc3nc2-1
IC50 (second compound 0.003 µM): 325 nM
IC50 (second compound 0.00949 µM): < 94.9 nM
IC50 (second compound 0.03 µM): < 94.9 nM
IC50 (second compound 0.0949 µM): < 94.9 nM
IC50 (second compound 0.3 µM): < 94.9 nM
viability, T/C (second compound 0.003 µM, first compound 0.0949 µM): 60.1%
viability, T/C (second compound 0.003 µM, first compound 0.3 µM): 49.8%
viability, T/C (second compound 0.003 µM, first compound 0.949 µM): 41.9%
viability, T/C (second compound 0.003 µM, first compound 3 µM): 30.9%
viability, T/C (second compound 0.003 µM, first compound 9.49 µM): 22%
viability, T/C (second compound 0.003 µM, first compound 30 µM): 16%
viability, T/C (second compound 0.00949 µM, first compound 0.0949 µM): 21.2%
viability, T/C (second compound 0.00949 µM, first compound 0.3 µM): 21%
viability, T/C (second compound 0.00949 µM, first compound 0.949 µM): 19.2%
viability, T/C (second compound 0.00949 µM, first compound 3 µM): 20.6%
viability, T/C (second compound 0.00949 µM, first compound 9.49 µM): 35.5%
viability, T/C (second compound 0.00949 µM, first compound 30 µM): 15.7%
viability, T/C (second compound 0.03 µM, first compound 0.0949 µM): 12.3%
viability, T/C (second compound 0.03 µM, first compound 0.3 µM): 12.6%
viability, T/C (second compound 0.03 µM, first compound 0.949 µM): 13.7%
viability, T/C (second compound 0.03 µM, first compound 3 µM): 23.3%
viability, T/C (second compound 0.03 µM, first compound 9.49 µM): 18.2%
viability, T/C (second compound 0.03 µM, first compound 30 µM): 14.3%
viability, T/C (second compound 0.0949 µM, first compound 0.0949 µM): 35.7%
viability, T/C (second compound 0.0949 µM, first compound 0.3 µM): 7.72%
viability, T/C (second compound 0.0949 µM, first compound 0.949 µM): 8.21%
viability, T/C (second compound 0.0949 µM, first compound 3 µM): 10%
viability, T/C (second compound 0.0949 µM, first compound 9.49 µM): 12.8%
viability, T/C (second compound 0.0949 µM, first compound 30 µM): 14.4%
viability, T/C (second compound 0.3 µM, first compound 0.0949 µM): 4.06%
viability, T/C (second compound 0.3 µM, first compound 0.3 µM): 3.8%
viability, T/C (second compound 0.3 µM, first compound 0.949 µM): 4.04%
viability, T/C (second compound 0.3 µM, first compound 3 µM): 5.04%
viability, T/C (second compound 0.3 µM, first compound 9.49 µM): 13.5%
viability, T/C (second compound 0.3 µM, first compound 30 µM): 9.66%

[2H]c1nc(C)nc([2H])c1-c1cc(NC[C@@H](C)c2cccc3c(C(=O)NC)ccnc23)ncn1 + COc1cc2c(cc1O)CCNC21CSC2c3c(OC(C)=O)c(C)c4c(c3C(COC1=O)N1C(O)C3Cc5cc(C)c(OC)c(O)c5C(C21)N3C)OCO4
IC50 (second compound 30 pM): > 10000 nM
IC50 (second compound 94.9 pM): > 10000 nM
IC50 (second compound 0.0003 µM): < 31.6 nM
IC50 (second compound 0.000949 µM): < 31.6 nM
IC50 (second compound 0.003 µM): < 31.6 nM
viability, T/C [1]: 102%
viability, T/C [2]: 101%
viability, T/C [3]: 101%
viability, T/C [4]: 101%
viability, T/C [5]: 100%
viability, T/C [6]: 98%
viability, T/C [7]: 90.8%
viability, T/C [8]: 94.2%
viability, T/C [9]: 94.6%
viability, T/C [10]: 94.5%
viability, T/C [11]: 93.9%
viability, T/C [12]: 85.7%
viability, T/C [13]: 31%
viability, T/C [14]: 32.2%
viability, T/C [15]: 35.5%
viability, T/C [16]: 30%
viability, T/C [17]: 31.6%
viability, T/C [18]: 21.6%
viability, T/C [19]: 3.38%
viability, T/C [20]: 2.4%
viability, T/C [21]: 2.32%
viability, T/C [22]: 2.39%
viability, T/C [23]: 2.46%
viability, T/C [24]: 3.2%
viability, T/C [25]: 0.5%
viability, T/C [26]: 0.64%
viability, T/C [27]: 0.5%
viability, T/C [28]: 0.66%
viability, T/C [29]: 0.74%
viability, T/C [30]: 0.7%
